Measured values as given in paper PMC6079014, “Calcium is an essential cofactor for metal efflux by the ferroportin transporter family” (Nature Communications, 2018).
pEC50: −log10 of the molar value. “And” between values parts separate entries of the source, which are not always exact repeats. Equal entries are not always repeated.

How the values were obtained:
[1] = target: T1, human Fpn (Homo sapiens, UniProt Q9NP59); assay: Radiotracer metal efflux assay in Xenopus oocytes expressing human Fpn; assay type: cell-based
T1 construct: expressed in transfected cells; host or cells: Xenopus laevis oocytes injected with Fpn RNA
T1 sequence (Q9NP59 1-571): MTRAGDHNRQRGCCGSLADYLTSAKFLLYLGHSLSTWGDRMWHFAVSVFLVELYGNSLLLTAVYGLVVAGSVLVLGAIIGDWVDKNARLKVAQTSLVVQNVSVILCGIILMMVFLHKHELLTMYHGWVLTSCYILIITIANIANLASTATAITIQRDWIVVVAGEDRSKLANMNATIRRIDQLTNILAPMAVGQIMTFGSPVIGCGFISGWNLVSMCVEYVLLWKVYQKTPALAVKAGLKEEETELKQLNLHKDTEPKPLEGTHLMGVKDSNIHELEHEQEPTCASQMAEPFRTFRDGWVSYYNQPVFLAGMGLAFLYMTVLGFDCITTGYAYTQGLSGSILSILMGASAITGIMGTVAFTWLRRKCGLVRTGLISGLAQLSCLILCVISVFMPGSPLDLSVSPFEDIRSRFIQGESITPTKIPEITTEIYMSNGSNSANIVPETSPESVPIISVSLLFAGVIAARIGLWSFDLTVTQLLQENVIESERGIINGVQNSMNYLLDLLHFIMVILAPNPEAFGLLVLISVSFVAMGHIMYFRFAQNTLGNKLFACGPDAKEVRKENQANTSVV
Procedure: We performed laparotomy and ovariectomy on adult female Xenopus laevis frogs (Nasco, Fort Atkinson, WI) under 2-aminoethylbenzoate methanesulfonate anesthesia (0.2%, by immersion, to effect) following a protocol approved by the University of Cincinnati Institutional Animal Care and Use Committee. Ovarian tissue was isolated and treated for 3 h with […] collagenase A (Roche Diagnostics Corp., Indianapolis, IN) in calcium-free-modified Barths’ medium (MBM) of composition 88 mM NaCl, 1 mM KCl, 2.4 mM NaHCO3, 1.57 mM MgSO4, 0.66 mM NaNO3, 10 mM 4-(2-hydroxyethyl)-1-piperazineethanesulfonic acid (HEPES), buffered to pH 7.5 by using 2-amino-2-hydroxymethyl-propane-1,3-diol (Tris base). We isolated defolliculate stage V–VI oocytes stored at 17 °C in MBM of composition 88 mM NaCl, 1 mM KCl, 2.4 mM NaHCO3, 0.82 MgSO4, 0.75 mM CaCl2, 0.66 mM NaNO3, 10 mM HEPES, buffered to pH 7.5 by using Tris base, with 50 mg l^−1 ciprofloxacin. We expressed in Xenopus oocytes the 1A transcript form of human Fpn fused at its C-terminus with the enhanced green fluorescent protein (GFP) as described. Oocytes were injected with ∼50 ng of Fpn RNA and incubated for 4–6 days before being used in functional assays. Control oocytes were noninjected.
We measured metal efflux from oocytes expressing Fpn by using a radiotracer assay. Radiochemicals ^55Fe, ^45Ca, ^57Co, ^65Zn were obtained from Perkin-Elmer Life Science Products (Boston, MA) and ^63Ni from the National Isotope Development Center (Oak Ridge, TN). We used ^55Fe (added as FeCl3) at final specific activity 0.4–2.0 GBq mg^−1, ^45Ca (added as CaCl2) at final specific activity 0.5–0.9 GBq mg^−1, ^57Co (added as CoCl2) at final specific activity 1.6 GBq mg^−1, ^65Zn (added as ZnCl2) at final specific activity 0.2 GBq mg^−1, and ^63Ni (added as NiCl2) at final specific activity 0.6 GBq mg^−1. Oocytes were injected with 50 nl of 5 μM metal radionuclide (*M) in vehicle of composition 250 mM KCl, 5 mM nitrilotriacetic acid, trisodium salt, buffered to pH 7.0 with ∼4 mM 2-(N-morpholino)ethanesulfonic acid (MES) (GFS Chemicals, Columbus, OH). After injection, oocytes were briefly stored in ice-cold MBM (for 1–5 min) prior to the start of the efflux assay.
To initiate the efflux assay, we placed oocytes in standard efflux medium of composition 100 mM NaCl, 1 mM KCl, 2 mM CaCl2, 1 mM MgCl2, 0.5 mM bathophenanthroline disulfonic acid (BPS), 1 mM nitrilotriacetic acid (NTA) trisodium salt, 50 μg/ml apotransferrin (ApoTf) (R&D Systems Inc., Minneapolis, MN), buffered with 0–5 mM MES, and 0–5 mM N′,N′-diethylpiperazine to obtain pH 7.5, with the following exceptions. To prepare Ca^2+-free medium, we replaced 2 mM CaCl2 with 4 mM NaCl and added 1 mM ethylene glycol-bis(2-aminoethyl ether)-N,N,N′,N′-tetraacetic acid (EGTA). To prepare Mg^2+-free medium, we replaced […] MgCl2 with 4 mM NaCl and added 1 mM ethylenediaminetetraacetic acid (EDTA). To measure ^55Fe efflux as a function of extracellular [Ca^2+] over the range 0.1–20 mM Ca^2+ (Figs. 1c, 6b), we adjusted [NaCl] and [CaCl2] on a 2:1 molar basis without the addition of EGTA. Oocytes were then transferred individually in 200 µl of medium to flat-bottomed wells of a 96-well plate and incubated 30 min—within the linear phase of metal efflux[10] —at 23–27 °C with gentle rocking. To terminate efflux, we removed 150 µl of medium (0.75 × [N0–Nt]) from each well for liquid-scintillation counting in Ultima Gold liquid-scintillation cocktail (Perkin-Elmer, Waltham, MA). The corresponding oocytes were rinsed twice in ice-cold medium (without BPS), solubilized with 5% (w/v) sodium dodecyl sulfate, and counted (Nt). We fit our data for oocyte radiotracer content (N) over time (Eq. (1)) and obtained the first-order rate constant (k) for metal radionuclide (*M) efflux for individual oocytes. N0 and Nt are counts per min (cpm) in the oocyte at time = 0 and time = t, respectively.1 Nt=N0⋅exp(-k⋅t) […]

[2] = target: BbFpn D24A (Bdellovibrio bacteriovorus, UniProt Q6MLJ0, D24A); assay: Isothermal titration calorimetry, D24A BbFpn; assay type: binding, Bdellovibrio bacteriovorous
[3] = 2 mM extracellular Ca2+ vs 0 mM Ca2+ plus 1 mM EGTA

BbFpn D24A, sequence (Q6MLJ0 whole entry D24A): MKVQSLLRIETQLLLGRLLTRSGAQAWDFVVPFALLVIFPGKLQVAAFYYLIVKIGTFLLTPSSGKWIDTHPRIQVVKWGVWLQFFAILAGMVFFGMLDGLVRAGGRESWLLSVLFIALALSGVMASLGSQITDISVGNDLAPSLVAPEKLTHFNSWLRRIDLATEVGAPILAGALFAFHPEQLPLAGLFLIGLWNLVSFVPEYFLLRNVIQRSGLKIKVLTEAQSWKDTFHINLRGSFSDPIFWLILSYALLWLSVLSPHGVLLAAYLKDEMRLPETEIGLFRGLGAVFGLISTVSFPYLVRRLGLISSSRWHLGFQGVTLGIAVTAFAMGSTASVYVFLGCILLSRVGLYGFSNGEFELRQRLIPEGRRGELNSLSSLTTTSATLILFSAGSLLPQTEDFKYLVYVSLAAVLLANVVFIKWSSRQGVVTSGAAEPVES

## [Ca+2] [Ca^2+, calcium]
[1]
  pEC50: 3.05 and 3.05 to 3.10 and 3.10
[1]; [3]
  Dependence of Fpn-mediated 55Fe efflux on extracellular Ca2+: dependent
  Effect of extracellular Ca2+ on Fpn-mediated 57Co efflux: activated
  Effect of extracellular Ca2+ on Fpn-mediated 63Ni efflux: activated
[1]; oocytes injected with 45Ca
  45Ca efflux from oocytes expressing Fpn vs control: did not stimulate
[2]
  Binding to D24A BbFpn by ITC (in words): complete loss
